# Laboratory results from patent US20220324815A1, “2-PHENOXY-PYRIMIDINE DERIVATIVES AS HERBICIDAL COMPOUNDS” (SYNGENTA CROP PROTECTION AG, priority 2019, published 2022).
# Assays:
# Format in all cases: in vivo
# Details in all cases: 250 g/ha unless otherwise stated, evaluated after 13 days, five-point scale
# [1] = test system: Amaranthus retoflexus (AMARE); test: Test 1 glasshouse herbicide test, post-emergence application (Table B1)
# Method in brief: (§1)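 Score is % phytotoxicity after 13 days, binned 1 (0–20%) to 5 (81–100%). Compound given at 250 g/ha unless stated, as acetone/water (50:50) spray with 0.5% Tween 20, one day post-sowing (pre-emergence) or after 8 days' growth (post-emergence); glasshouse at 24/16 °C day/night, 14 h light, 65% humidity.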
# [2] = test system: Echinochloa crus-galli (ECHCG); test: as above
# Method in brief: as §1
# [3] = test system: Lolium perenne (LOLPE); test: as above
# Method in brief: as §1
# [4] = test system: Solanum nigrum (SOLNI); test: as above
# Method in brief: as §1
# [5] = test system: Setaria faberi (SETFA); test: as above
# Method in brief: as §1
# [6] = test system: Ipomoea hederacea (IPOHE); test: as above
# Method in brief: as §1
# [7] = test system: Amaranthus retoflexus (AMARE); test: Test 1 glasshouse herbicide test, pre-emergence application (Table B2)
# Method in brief: as §1
# [8] = test system: Echinochloa crus-galli (ECHCG); test: as above
# Method in brief: as §1
# [9] = test system: Lolium perenne (LOLPE); test: as above
# Method in brief: as §1
# [10] = test system: Solanum nigrum (SOLNI); test: as above
# Method in brief: as §1
# [11] = test system: Setaria faberi (SETFA); test: as above
# Method in brief: as §1
# [12] = test system: Ipomoea hederacea (IPOHE); test: as above
# Method in brief: as §1
Compound,"% phytotoxicity AMARE, post-emergence application [1]","% phytotoxicity ECHCG, post-emergence application [2]","% phytotoxicity LOLPE, post-emergence application [3]","% phytotoxicity SOLNI, post-emergence application [4]","% phytotoxicity SETFA, post-emergence application [5]","% phytotoxicity IPOHE, post-emergence application [6]","% phytotoxicity AMARE, pre-emergence application [7]","% phytotoxicity ECHCG, pre-emergence application [8]","% phytotoxicity LOLPE, pre-emergence application [9]","% phytotoxicity SOLNI, pre-emergence application [10]","% phytotoxicity SETFA, pre-emergence application [11]","% phytotoxicity IPOHE, pre-emergence application [12]"
FC(F)(F)CCSc1ccccc1Oc1ncc(Cl)cn1 [Al],5 (5=81 to 100%),4 (4=61 to 80%),4 (4=61 to 80%),4 (4=61 to 80%),4 (4=61 to 80%),4 (4=61 to 80%),–,–,–,–,–,–
FC(F)(F)CCSc1ccccc1Oc1ncc(Cl)cn1 [Compound A1],–,–,–,–,–,–,5 (5=81 to 100%),4 (4=61 to 80%),3 (3=41 to 60%),4 (4=61 to 80%),5 (5=81 to 100%),3 (3=41 to 60%)
N#Cc1cccc(Oc2ncc(Cl)cn2)c1S(=O)(=O)CCCOC(F)(F)F [Compound A117],5 (5=81 to 100%),4 (4=61 to 80%),–,–,4 (4=61 to 80%),3 (3=41 to 60%),5 (5=81 to 100%),4 (4=61 to 80%),–,–,5 (5=81 to 100%),5 (5=81 to 100%)
N#Cc1cccc(Oc2ncc(Br)cn2)c1S(=O)(=O)CCCC(F)(F)F [Compound A118],5 (5=81 to 100%),4 (4=61 to 80%),–,–,4 (4=61 to 80%),4 (4=61 to 80%),5 (5=81 to 100%),5 (5=81 to 100%),–,–,5 (5=81 to 100%),5 (5=81 to 100%)
N#Cc1cccc(Oc2ncc(Br)cn2)c1SCCCC(F)(F)F [Compound A119],5 (5=81 to 100%),4 (4=61 to 80%),–,–,4 (4=61 to 80%),4 (4=61 to 80%),5 (5=81 to 100%),5 (5=81 to 100%),–,–,5 (5=81 to 100%),5 (5=81 to 100%)
N#Cc1cccc(Oc2ncc(Br)cn2)c1S(=O)(=O)CCCCC(F)(F)F [Compound A120],4 (4=61 to 80%),3 (3=41 to 60%),–,–,3 (3=41 to 60%),4 (4=61 to 80%),4 (4=61 to 80%),3 (3=41 to 60%),–,–,4 (4=61 to 80%),5 (5=81 to 100%)
N#Cc1cccc(Oc2ncc(Br)cn2)c1SCCCCC(F)(F)F [Compound A121],5 (5=81 to 100%),3 (3=41 to 60%),–,–,4 (4=61 to 80%),3 (3=41 to 60%),5 (5=81 to 100%),3 (3=41 to 60%),–,–,5 (5=81 to 100%),2 (2=21 to 40%)
